Where two headings read alike, the source gives them in different places.
Tests used:
[1] = system: Mycosphaerella graminicola; anamorph: Septoria tritici; Bayer code SEPTTR; test: Evaluation of fungicidal activity: leaf blotch of wheat (SEPTTR), disease control on wheat plants; type: in vivo; settings: Zymoseptoria tritici
Experimental: Evaluation of Fungicidal Activity: Leaf Blotch of Wheat (Mycosphaerella graminicola; anamorph: Septoria tritici; Bayer code […]) Wheat plants (variety Yuma) were grown from seed in a greenhouse in 50% mineral soil/50% soil-less Metro mix until the first leaf was fully emerged, with 7-10 seedlings per pot. These plants were inoculated with an aqueous spore suspension of Septoria tritici either prior to or after fungicide treatments. After inoculation the plants were kept in 100% relative humidity (one day in a dark dew chamber followed by two to three days in a lighted dew chamber) to permit spores to germinate and infect the leaf. The plants were then transferred to a greenhouse for disease to develop. The following table presents the activity of typical compounds of the present disclosure when evaluated in these experiments. The effectiveness of the test compounds in controlling disease was determined by assessing the severity of disease on treated plants, then converting the severity to percent control based on the level of disease on untreated, inoculated plants.

[2] = 24 h, 100 ppm, one-day protectant, wheat plants (variety Yuma), percent control vs untreated, inoculated plants, read-out: SEPTTR 100 PPM 1DP (One-Day Protectant activity, % disease control rating)
[3] = 72 h, 100 ppm, three-day curative, wheat plants (variety Yuma), percent control vs untreated, inoculated plants, read-out: SEPTTR 100 PPM 3DC (Three-Day Curative activity, % disease control rating)
[4] = 24 h, read-out: SEPTTR 100 PPM 1DP (One-Day Protectant activity, % disease control rating)
[5] = 72 h, read-out: SEPTTR 100 PPM 3DC (Three-Day Curative activity, % disease control rating)

Row | melting point | SMILES | pest or weed control at 100 ppm [1, 2] | pest or weed control at 100 ppm [1, 3] | pest or weed control at 100 ppm [1, 4] | pest or weed control at 100 ppm [1, 5]
1 | 203.6 to 205.5 °C | Cn1c(=N)c(F)cn(C(=O)Nc2ccc(F)cc2Cl)c1=O [Compound 18] | 51 to 75% | 0 to 25% |  | 
2 | 194 to 196 °C | Cn1c(=N)c(F)cn(C(=O)Nc2ccc(F)cc2)c1=O [Compound 13] | 0 to 25% | 26 to 50% |  | 
3 | 168.9 to 170 °C | COc1ccccc1NC(=O)n1cc(F)c(=N)n(C)c1=O [Compound 9] | 26 to 50% | 76 to 100% |  | 
4 | 194.3 to 196.3 °C | COc1ccc(NC(=O)n2cc(F)c(=N)n(C)c2=O)cc1F [Compound 19] | 76 to 100% | 26 to 50% |  | 
5 | 188.5 to 192.4 °C | Cc1cccc(NC(=O)n2cc(F)c(=N)n(C)c2=O)c1 [Compound 10] | 0 to 25% | 51 to 75% |  | 
6 | 168.3 to 169.6 °C | COc1ccc(OC)c(NC(=O)n2cc(F)c(=N)n(C)c2=O)c1 [Compound 17] | 76 to 100% | 76 to 100% |  | 
7 | 192.4 to 195.7 °C | Cn1c(=N)c(F)cn(C(=O)Nc2ccc(C(F)(F)F)cc2)c1=O [Compound 11] | 0 to 25% | 0 to 25% |  | 
8 | 210 to 213 °C | Cc1cc(NC(=O)n2cc(F)c(=N)n(C)c2=O)c(C)cc1Cl [Compound 20] | 51 to 75% | 26 to 50% |  | 
9 | 192.9 to 193.5 °C | Cc1ccc(NC(=O)n2cc(F)c(=N)n(C)c2=O)cc1Cl [Compound 16] | 76 to 100% | 26 to 50% |  | 
10 | 204.1 to 205.5 °C | Cn1c(=N)c(F)cn(C(=O)Nc2cccc(C#N)c2)c1=O [Compound 15] | 0 to 25% | 26 to 50% |  | 
11 | 197.5 to 199.4 °C | Cn1c(=N)c(F)cn(C(=O)Nc2cccc(F)c2)c1=O [Compound 12] | 51 to 75% | 0 to 25% |  | 
12 | 195.5 to 196.3 °C | COc1cccc(NC(=O)n2cc(F)c(=N)n(C)c2=O)c1 [Compound 21] | 0 to 25% | 0 to 25% |  | 
13 | 200.3 to 201.8 °C | Cn1c(=N)c(F)cn(C(=O)Nc2cccs2)c1=O [Compound 8] | 51 to 75% | 76 to 100% |  | 

More lines, now with the values behind:

Row | SMILES | melting point | pest or weed control at 100 ppm [1, 2] | pest or weed control at 100 ppm [1, 3] | pest or weed control at 100 ppm [1, 4] | pest or weed control at 100 ppm [1, 5]
14 | Cn1c(=N)c(F)cn(C(=O)Nc2cc(Cl)cc(Cl)c2)c1=O [Compound 14] | 210 to 213.1 °C |  |  | 0 to 25% | 0 to 25%
15 | Cc1ccc(NC(=S)n2cc(F)c(=N)n(C)c2=O)cc1 [Compound 5] |  |  |  | 76 to 100% | 76 to 100%
16 | Cn1c(=N)c(F)cn(C(=O)Nc2ccccc2)c1=O | 192.3 to 194.4 °C |  |  |  | 
17 | Cn1c(=N)c(F)cn(C(=S)Nc2ccc(Cl)cc2)c1=O [Compound 6, N-(4-chlorophenyl)-5-fluoro-4-imino-3-methyl-2-oxo-3,4-dihydropyrimidine-1(2H)-carbothioamide] |  | 76 to 100% | 76 to 100% |  | 
18 | Cn1c(=N)c(F)cn(C(=O)Nc2cc(F)cc(F)c2)c1=O [Compound 3, N-(3,5-difluorophenyl)-5-fluoro-4-imino-3-methyl-2-oxo-3,4-dihydropyrimidine-1(2H)-carboxamide] | 203 to 204.5 °C | 0 to 25% | 51 to 75% |  | 
19 | Cn1c(=N)c(F)cn(C(=S)Nc2cc(Cl)cc(Cl)c2)c1=O [Compound 22] |  | 51 to 75% | 26 to 50% |  | 
20 | Cc1ccc(NC(=O)n2cc(F)c(=N)n(C)c2=O)cc1 [Compound 1] | 184.7 to 186.2 °C | 51 to 75% | 0 to 25% |  | 
21 | Cn1c(=N)c(F)cn(C(=O)Nc2ccc(Cl)cc2)c1=O [Compound 2] | 199 to 200.8 °C |  |  | 26 to 50% | 0 to 25%
22 | Cn1c(=N)c(F)cn(C(=O)Nc2ccsc2)c1=O [Compound 7] | 194.2 to 195.2 °C | 51 to 75% | 76 to 100% |  | 
23 | COc1ccc(NC(=O)n2cc(F)c(=N)n(C)c2=O)cc1 [Compound 4] | 194.8 to 195.4 °C |  |  | 51 to 75% | 26 to 50%

From patent publication US9840475B2, “N-(substituted)-5-fluoro-4-imino-3-methyl-2-oxo-3,4-dihydropyrimidine-1(2H)-carboxamide derivatives” (Adama Makhteshim Ltd., priority 2012, dated 2017)
